Assay results reported in ChEMBL document CHEMBL3608278 (J Med Chem, 2015).

Columns and labels:
[1] = biological target: T1, Potassium voltage-gated channel subfamily A member 3 (Homo sapiens, UniProt P22001); parameters: species or system Blood
[2] = biological target: T1, Potassium voltage-gated channel subfamily A member 3; experiment: cell-based; parameters: species or system Blood
[3] = biological target: T1, Potassium voltage-gated channel subfamily A member 3; assay type: cell-based, CHO-K1

T1 sequence (P22001 whole entry): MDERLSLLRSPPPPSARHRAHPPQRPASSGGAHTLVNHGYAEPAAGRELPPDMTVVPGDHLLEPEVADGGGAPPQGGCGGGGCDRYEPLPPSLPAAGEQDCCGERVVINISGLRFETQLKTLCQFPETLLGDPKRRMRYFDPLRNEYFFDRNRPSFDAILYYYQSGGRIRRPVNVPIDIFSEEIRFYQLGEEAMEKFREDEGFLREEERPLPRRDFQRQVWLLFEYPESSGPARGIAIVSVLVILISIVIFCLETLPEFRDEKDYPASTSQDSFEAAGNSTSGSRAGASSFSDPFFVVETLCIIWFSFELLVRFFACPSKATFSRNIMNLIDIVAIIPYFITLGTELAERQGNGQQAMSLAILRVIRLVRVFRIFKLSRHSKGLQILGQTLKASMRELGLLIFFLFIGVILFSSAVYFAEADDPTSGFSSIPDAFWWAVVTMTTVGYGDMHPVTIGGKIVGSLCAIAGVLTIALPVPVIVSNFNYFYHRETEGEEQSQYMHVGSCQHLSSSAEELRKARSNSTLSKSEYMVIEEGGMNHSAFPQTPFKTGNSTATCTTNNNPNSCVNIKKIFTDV

IC50 [1]	IC50 [2]	IC50 [3]	SMILES
0.492 nM	0.372 nM	0.166 nM	CC[C@H](C)[C@@H]1NC(=O)[C@@H](NC(=O)[C@H](CO)NC(=O)[C@@H](N)CCCNC(=N)N)CSSC[C@@H](C(=O)O)NC(=O)[C@H]([C@@H](C)O)NC(=O)CNC(=O)[C@@H]2CSSC[C@@H]3NC(=O)[C@H](CCCNC(=N)N)NC(=O)[C@H](Cc4ccccc4)NC(=O)[C@H](C)NC(=O)[C@H]([C@@H](C)O)NC(=O)[C@H](CSSC[C@H](NC(=O)[C@H](Cc4ccccc4)NC(=O)[C@H](CO)NC(=O)[C@H](CC(C)C)NC(=O)[C@H](CCCNC(=N)N)NC(=O)[C@H](Cc4ccc(O)cc4)NC(=O)[C@H](CCCCN)NC(=O)[C@H](CCSC)NC(=O)[C@H](CO)NC(=O)[C@H](Cc4cnc[nH]4)NC(=O)[C@H](CCCCN)NC3=O)C(=O)N[C@@H](CCCNC(=N)N)C(=O)N[C@@H](CCCCN)C(=O)N[C@@H]([C@@H](C)O)C(=O)N2)NC(=O)[C@H](CCCNC(=N)N)NC(=O)[C@H](CO)NC(=O)[C@H](CCCCN)NC(=O)[C@@H]2CCCN2C(=O)[C@H]([C@@H](C)CC)NC(=O)[C@H]([C@@H](C)O)NC(=O)[C@H](CC(=O)O)NC1=O
0.056 nM	0.038 nM	0.104 nM	CC[C@H](C)[C@@H]1NC(=O)[C@@H](NC(=O)[C@H](CO)NC(=O)[C@@H](N)CCCNC(=N)N)CSSC[C@@H](C(=O)O)NC(=O)[C@H]([C@@H](C)O)NC(=O)CNC(=O)[C@@H]2CSSC[C@@H]3NC(=O)[C@H](CCC(N)=O)NC(=O)[C@H](Cc4ccccc4)NC(=O)[C@H](C)NC(=O)[C@H]([C@@H](C)O)NC(=O)[C@H](CSSC[C@H](NC(=O)[C@H](Cc4ccccc4)NC(=O)[C@H](CO)NC(=O)[C@H](CC(C)C)NC(=O)[C@H](CCCNC(=N)N)NC(=O)[C@H](Cc4ccc(O)cc4)NC(=O)[C@H](CCCCN)NC(=O)[C@H](CCSC)NC(=O)[C@H](CO)NC(=O)[C@H](Cc4cnc[nH]4)NC(=O)[C@H](CCCNC(=N)N)NC3=O)C(=O)N[C@@H](CCCNC(=N)N)C(=O)N[C@@H](CCCCN)C(=O)N[C@@H]([C@@H](C)O)C(=O)N2)NC(=O)[C@H](CCCNC(=N)N)NC(=O)[C@H](CO)NC(=O)[C@H](CCCCN)NC(=O)[C@@H]2CCCN2C(=O)[C@H]([C@@H](C)CC)NC(=O)[C@H]([C@@H](C)O)NC(=O)[C@H](CC(=O)O)NC1=O
0.282 nM	0.114 nM	0.095 nM	CC[C@H](C)[C@@H]1NC(=O)[C@@H](NC(=O)[C@H](CO)NC(=O)[C@@H](N)CCCNC(=N)N)CSSC[C@@H](C(=O)O)NC(=O)[C@H]([C@@H](C)O)NC(=O)CNC(=O)[C@@H]2CSSC[C@@H]3NC(=O)[C@H](CCC(N)=O)NC(=O)[C@H](Cc4ccccc4)NC(=O)[C@H](C)NC(=O)[C@H]([C@@H](C)O)NC(=O)[C@H](CSSC[C@H](NC(=O)[C@H](Cc4ccccc4)NC(=O)[C@H](CO)NC(=O)[C@H](CC(C)C)NC(=O)[C@H](CCCNC(=N)N)NC(=O)[C@H](Cc4ccc(O)cc4)NC(=O)[C@H](CCCCN)NC(=O)[C@H](CCSC)NC(=O)[C@H](CO)NC(=O)[C@H](CCCNC(=N)N)NC(=O)[C@H](CCCCN)NC3=O)C(=O)N[C@@H](CCCNC(=N)N)C(=O)N[C@@H](CCCCN)C(=O)N[C@@H]([C@@H](C)O)C(=O)N2)NC(=O)[C@H](CCCNC(=N)N)NC(=O)[C@H](CO)NC(=O)[C@H](CCCCN)NC(=O)[C@@H]2CCCN2C(=O)[C@H]([C@@H](C)CC)NC(=O)[C@H]([C@@H](C)O)NC(=O)[C@H](CC(=O)O)NC1=O
40.3 nM	25.3 nM	> 3.33 nM	CC[C@H](C)[C@@H]1NC(=O)[C@@H](NC(=O)[C@H](CO)NC(=O)[C@@H](N)CCCNC(=N)N)CSSC[C@@H](C(=O)O)NC(=O)[C@H]([C@@H](C)O)NC(=O)CNC(=O)[C@@H]2CSSC[C@@H]3NC(=O)[C@H](CCC(N)=O)NC(=O)[C@H](Cc4ccccc4)NC(=O)[C@H](C)NC(=O)[C@H]([C@@H](C)O)NC(=O)[C@H](CSSC[C@H](NC(=O)[C@H](Cc4ccccc4)NC(=O)[C@H](CO)NC(=O)[C@H](CC(C)C)NC(=O)[C@H](CCCNC(=N)N)NC(=O)[C@H](Cc4ccc(O)cc4)NC(=O)[C@H](CCCCN)NC(=O)[C@H](CCSC)NC(=O)[C@H](CCCNC(=N)N)NC(=O)[C@H](Cc4cnc[nH]4)NC(=O)[C@H](CCCCN)NC3=O)C(=O)N[C@@H](CCCNC(=N)N)C(=O)N[C@@H](CCCCN)C(=O)N[C@@H]([C@@H](C)O)C(=O)N2)NC(=O)[C@H](CCCNC(=N)N)NC(=O)[C@H](CO)NC(=O)[C@H](CCCCN)NC(=O)[C@@H]2CCCN2C(=O)[C@H]([C@@H](C)CC)NC(=O)[C@H]([C@@H](C)O)NC(=O)[C@H](CC(=O)O)NC1=O
3.08 nM	1.49 nM	0.259 nM	CC[C@H](C)[C@@H]1NC(=O)[C@@H](NC(=O)[C@H](CO)NC(=O)[C@@H](N)CCCNC(=N)N)CSSC[C@@H](C(=O)O)NC(=O)[C@H]([C@@H](C)O)NC(=O)CNC(=O)[C@@H]2CSSC[C@@H]3NC(=O)[C@H](CCC(N)=O)NC(=O)[C@H](Cc4ccccc4)NC(=O)[C@H](C)NC(=O)[C@H]([C@@H](C)O)NC(=O)[C@H](CSSC[C@H](NC(=O)[C@H](Cc4ccccc4)NC(=O)[C@H](CO)NC(=O)[C@H](CC(C)C)NC(=O)[C@H](CCCNC(=N)N)NC(=O)[C@H](Cc4ccc(O)cc4)NC(=O)[C@H](CCCCN)NC(=O)[C@H](CCCNC(=N)N)NC(=O)[C@H](CO)NC(=O)[C@H](Cc4cnc[nH]4)NC(=O)[C@H](CCCCN)NC3=O)C(=O)N[C@@H](CCCNC(=N)N)C(=O)N[C@@H](CCCCN)C(=O)N[C@@H]([C@@H](C)O)C(=O)N2)NC(=O)[C@H](CCCNC(=N)N)NC(=O)[C@H](CO)NC(=O)[C@H](CCCCN)NC(=O)[C@@H]2CCCN2C(=O)[C@H]([C@@H](C)CC)NC(=O)[C@H]([C@@H](C)O)NC(=O)[C@H](CC(=O)O)NC1=O
> 100 nM	> 100 nM	> 3.33 nM	CC[C@H](C)[C@@H]1NC(=O)[C@@H](NC(=O)[C@H](CO)NC(=O)[C@@H](N)CCCNC(=N)N)CSSC[C@@H](C(=O)O)NC(=O)[C@H]([C@@H](C)O)NC(=O)CNC(=O)[C@@H]2CSSC[C@@H]3NC(=O)[C@H](CCC(N)=O)NC(=O)[C@H](Cc4ccccc4)NC(=O)[C@H](C)NC(=O)[C@H]([C@@H](C)O)NC(=O)[C@H](CSSC[C@H](NC(=O)[C@H](Cc4ccccc4)NC(=O)[C@H](CO)NC(=O)[C@H](CC(C)C)NC(=O)[C@H](CCCNC(=N)N)NC(=O)[C@H](Cc4ccc(O)cc4)NC(=O)[C@H](CCCNC(=N)N)NC(=O)[C@H](CCSC)NC(=O)[C@H](CO)NC(=O)[C@H](Cc4cnc[nH]4)NC(=O)[C@H](CCCCN)NC3=O)C(=O)N[C@@H](CCCNC(=N)N)C(=O)N[C@@H](CCCCN)C(=O)N[C@@H]([C@@H](C)O)C(=O)N2)NC(=O)[C@H](CCCNC(=N)N)NC(=O)[C@H](CO)NC(=O)[C@H](CCCCN)NC(=O)[C@@H]2CCCN2C(=O)[C@H]([C@@H](C)CC)NC(=O)[C@H]([C@@H](C)O)NC(=O)[C@H](CC(=O)O)NC1=O
> 100 nM	> 100 nM	> 3.33 nM	CC[C@H](C)[C@@H]1NC(=O)[C@@H](NC(=O)[C@H](CO)NC(=O)[C@@H](N)CCCNC(=N)N)CSSC[C@@H](C(=O)O)NC(=O)[C@H]([C@@H](C)O)NC(=O)CNC(=O)[C@@H]2CSSC[C@@H]3NC(=O)[C@H](CCC(N)=O)NC(=O)[C@H](Cc4ccccc4)NC(=O)[C@H](C)NC(=O)[C@H]([C@@H](C)O)NC(=O)[C@H](CSSC[C@H](NC(=O)[C@H](Cc4ccccc4)NC(=O)[C@H](CO)NC(=O)[C@H](CC(C)C)NC(=O)[C@H](CCCNC(=N)N)NC(=O)[C@H](CCCNC(=N)N)NC(=O)[C@H](CCCCN)NC(=O)[C@H](CCSC)NC(=O)[C@H](CO)NC(=O)[C@H](Cc4cnc[nH]4)NC(=O)[C@H](CCCCN)NC3=O)C(=O)N[C@@H](CCCNC(=N)N)C(=O)N[C@@H](CCCCN)C(=O)N[C@@H]([C@@H](C)O)C(=O)N2)NC(=O)[C@H](CCCNC(=N)N)NC(=O)[C@H](CO)NC(=O)[C@H](CCCCN)NC(=O)[C@@H]2CCCN2C(=O)[C@H]([C@@H](C)CC)NC(=O)[C@H]([C@@H](C)O)NC(=O)[C@H](CC(=O)O)NC1=O
59.7 nM	13 nM	> 3.33 nM	CC[C@H](C)[C@@H]1NC(=O)[C@@H](NC(=O)[C@H](CO)NC(=O)[C@@H](N)CCCNC(=N)N)CSSC[C@@H](C(=O)O)NC(=O)[C@H]([C@@H](C)O)NC(=O)CNC(=O)[C@@H]2CSSC[C@@H]3NC(=O)[C@H](CCC(N)=O)NC(=O)[C@H](Cc4ccccc4)NC(=O)[C@H](C)NC(=O)[C@H]([C@@H](C)O)NC(=O)[C@H](CSSC[C@H](NC(=O)[C@H](CCCNC(=N)N)NC(=O)[C@H](CO)NC(=O)[C@H](CC(C)C)NC(=O)[C@H](CCCNC(=N)N)NC(=O)[C@H](Cc4ccc(O)cc4)NC(=O)[C@H](CCCCN)NC(=O)[C@H](CCSC)NC(=O)[C@H](CO)NC(=O)[C@H](Cc4cnc[nH]4)NC(=O)[C@H](CCCCN)NC3=O)C(=O)N[C@@H](CCCNC(=N)N)C(=O)N[C@@H](CCCCN)C(=O)N[C@@H]([C@@H](C)O)C(=O)N2)NC(=O)[C@H](CCCNC(=N)N)NC(=O)[C@H](CO)NC(=O)[C@H](CCCCN)NC(=O)[C@@H]2CCCN2C(=O)[C@H]([C@@H](C)CC)NC(=O)[C@H]([C@@H](C)O)NC(=O)[C@H](CC(=O)O)NC1=O

SMILES	IC50 [1]	IC50 [2]	IC50 [3]
CC[C@H](C)[C@@H]1NC(=O)[C@@H](NC(=O)[C@H](CO)NC(=O)[C@@H](N)CCCNC(=N)N)CSSC[C@@H](C(=O)O)NC(=O)[C@H]([C@@H](C)O)NC(=O)CNC(=O)[C@@H]2CSSC[C@@H]3NC(=O)[C@H](CCC(N)=O)NC(=O)[C@H](Cc4ccccc4)NC(=O)[C@H](C)NC(=O)[C@H]([C@@H](C)O)NC(=O)[C@H](CSSC[C@H](NC(=O)[C@H](Cc4ccccc4)NC(=O)[C@H](CO)NC(=O)[C@H](CC(C)C)NC(=O)[C@H](CCCNC(=N)N)NC(=O)[C@H](Cc4ccc(O)cc4)NC(=O)[C@H](CCCCN)NC(=O)[C@H](CCSC)NC(=O)[C@H](CO)NC(=O)[C@H](Cc4c[nH]cn4)NC(=O)[C@H](CCCCN)NC3=O)C(=O)N[C@@H](CCCNC(=N)N)C(=O)N[C@@H](CCCCN)C(=O)N[C@@H](CCCNC(=N)N)C(=O)N2)NC(=O)[C@H](CCCNC(=N)N)NC(=O)[C@H](CO)NC(=O)[C@H](CCCCN)NC(=O)[C@@H]2CCCN2C(=O)[C@H]([C@@H](C)CC)NC(=O)[C@H]([C@@H](C)O)NC(=O)[C@H](CC(=O)O)NC1=O	39 nM	11.1 nM	> 3.33 nM
